Assay results published in patent publication US20260262643A1, “HERBICIDAL BENZOXAZINES” (FMC CORPORATION, priority 2022, published 2026).

Columns and labels:
[1] = tested on: barnyardgrass; assay: Test A preemergence; type: in vivo, Echinochloa crusgalli
Outline: (§1)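 Plants were grown in loam and sand and treated preemergence or postemergence (one- to two-leaf stage, 2–10 cm) with compound in solvent plus surfactant. Response was scored against untreated controls after 10 greenhouse days, where 0 means no effect and 100 complete control.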

[2] = tested on: foxtail, giant; assay: Test A preemergence; type: in vivo, Setaria faberi
Outline: as §1

[3] = tested on: kochia; assay: Test A preemergence; type: in vivo, Bassia scoparia
Outline: as §1

[4] = tested on: Pigweed, Redroot; assay: Test A preemergence; type: in vivo, Amaranthus retroflexus
Outline: as §1

[5] = tested on: ragweed; assay: Test A preemergence; type: in vivo, Ambrosia artemisiifolia
Outline: as §1

[6] = tested on: ryegrass, Italian; assay: Test A preemergence; type: in vivo, Lolium multiflorum
Outline: as §1

[7] = tested on: barnyardgrass; assay: Test A postemergence; type: in vivo, Echinochloa crusgalli
Outline: as §1

[8] = tested on: blackgrass; assay: Test A postemergence; type: in vivo, Alopecurus myosuroides
Outline: as §1

[9] = tested on: corn; assay: Test A postemergence; type: in vivo, Zea mays
Outline: as §1

[10] = tested on: foxtail, giant; assay: Test A postemergence; type: in vivo, Setaria faberi
Outline: as §1

[11] = tested on: kochia; assay: Test A postemergence; type: in vivo, Bassia scoparia
Outline: as §1

[12] = tested on: Pigweed, Redroot; assay: Test A postemergence; type: in vivo, Amaranthus retroflexus
Description: Seeds of plant species selected from barnyardgrass (Echinochloa crusgalli), blackgrass (Alopecurus myosuroides), corn (Zea mays), foxtail, giant (giant foxtail, Setaria faberi), goosegrass (Eleusine indica), kochia (Bassia scoparia), oat, wild (wild oat, Avena fatua), pigweed, palmer (palmer amaranth, palmer pigweed, Amaranthus palmeri), Pigweed, Redroot (redroot pigweed, Amaranthus retroflexus), ragweed (common ragweed, Ambrosia artemisiifolia), ryegrass, Italian (italian ryegrass, Lolium multiflorum), soybean (Glycine max), and wheat (Triticum aestivum) were planted into a blend of loam soil and sand and treated preemergence with a directed soil spray using test chemicals formulated in a non-phytotoxic solvent mixture which included a surfactant. At the same time, plants selected from these crops and weed species and also galium (catchweed bedstraw, Galium aparine) and horseweed (Erigeron canadensis) were planted in pots containing the same blend of loam soil and sand and treated with postemergence applications of test chemicals formulated in the same manner. Plants ranged in height from 2 to 10 cm and were in the one- to two-leaf stage for the postemergence treatment. Treated plants and untreated controls were maintained in a greenhouse for 10 days, after which time all treated plants were compared to untreated controls and visually evaluated for injury. Plant response ratings, summarized in Table A, are based on a 0 to 100 scale where 0 is no effect and 100 is complete control. A dash (-) response means no test result.

[13] = tested on: ragweed; assay: Test A postemergence; type: in vivo, Ambrosia artemisiifolia
Outline: as §1

[14] = tested on: ryegrass, Italian; assay: Test A postemergence; type: in vivo, Lolium multiflorum
Outline: as §1

[15] = tested on: wheat; assay: Test A postemergence; type: in vivo, Triticum aestivum
Outline: as §1

[16] = tested on: galium; assay: Test A postemergence; type: in vivo, Galium aparine
Outline: as §1

[17] = tested on: barnyardgrass; assay: Test B flooded paddy test; type: in vivo, Echinochloa crus-galli; settings: 250 g ai/ha, Flood, 13 days, 0 to 100 scale (0 no effect, 100 complete control)
Outline: (§2)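 2-leaf stage; pots flooded 3 cm over soil; compound dosed into paddy water; depth kept constant. Greenhouse, 13 d. Visual rating vs controls, 0 (no effect)–100 (complete control). Dash = no result.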

[18] = tested on: ducksalad; assay: Test B flooded paddy test; type: in vivo, Heteranthera limosa; settings: 250 g ai/ha, Flood, 13 days, 0 to 100 scale (0 no effect, 100 complete control)
Outline: as §2

[19] = tested on: rice; assay: Test B flooded paddy test; type: in vivo, Oryza sativa; settings: 250 g ai/ha, Flood, 13 days, 0 to 100 scale (0 no effect, 100 complete control)
Outline: as §2

[20] = tested on: sedge, umbrella; assay: Test B flooded paddy test; type: in vivo, Cyperus difformis; settings: 250 g ai/ha, Flood, 13 days, 0 to 100 scale (0 no effect, 100 complete control)
Outline: as §2

[21] = 125 g ai/ha, visual injury after 10 days, 0 to 100 scale, 0 is no effect, 100 is complete control
[22] = 500 g ai/ha, 0 to 100 scale (0 no effect, 100 complete control), 10 days
[23] = 125 g ai/ha, postemergence, 10 days, visual injury, 0 to 100 scale (0 no effect, 100 complete control)
[24] = 500 g ai/ha, Postemergence, 0 to 100 scale
[25] = 1000 g ai/ha, 0 to 100 scale (0 no effect, 100 complete control), 10 days
[26] = 1000 g ai/ha, Postemergence, 0 to 100 scale

In the case of `CCC1CN(C(=O)c2cccc(-n3cncn3)c2)c2cccc(Cl)c2O1` (racemic) [Compound 7], the “Plant response rating, Barnyardgrass” value [1, 21] was 0, the “Plant response rating, Barnyardgrass” value [1, 22] was 0 and the “Plant response rating, Foxtail, Giant” value [2, 21] was 10. The “Plant response rating, Foxtail, Giant” value [2, 22] was 80, the “Plant response rating, Kochia” value [3, 21] was 40 and the “Plant response rating, Kochia” value [3, 22] was 80. The “Plant response rating, Pigweed, Redroot” value [4, 21] was 0, the “Plant response rating, Pigweed, Redroot” value [4, 22] was 40 and the “Plant response rating, Ragweed” value [5, 21] was 0. The “Plant response rating, Ragweed” value [5, 22] was 0, the “Plant response rating, Ryegrass, Italian” value [6, 21] was 50 and the “Plant response rating, Ryegrass, Italian” value [6, 22] was 50. For the same compound, the “Plant response rating, Barnyardgrass” value [7, 23] was 10, the “Plant response rating, Barnyardgrass” value [7, 24] was 20 and the “Plant response rating, Blackgrass” value [8, 23] was 0. For the same compound, the “Plant response rating, Blackgrass” value [8, 24] was 30, the “Plant response rating, Corn” value [9, 23] was 0 and the “Plant response rating, Corn” value [9, 24] was 0. The “Plant response rating, Foxtail, Giant” value [10, 23] was 10, the “Plant response rating, Foxtail, Giant” value [10, 24] was 20 and the “Plant response rating, Kochia” value [11, 23] was 0. The “Plant response rating, Kochia” value [11, 24] was 20, the “Plant response rating, Pigweed, Redroot” value [12, 23] was 0 and the “Plant response rating, Pigweed, Redroot” value [12, 24] was 30. For the same compound, the “Plant response rating, Ragweed” value [13, 23] was 0, the “Plant response rating, Ragweed” value [13, 24] was 0 and the “Plant response rating, Ryegrass, Italian” value [14, 23] was 0. The “Plant response rating, Ryegrass, Italian” value [14, 24] was 0, the “Plant response rating, Wheat” value [15, 23] was 30 and the “Plant response rating, Wheat” value [15, 24] was 40. For the same compound, the “Plant response rating, Galium” value [16, 23] was 0, the “Plant response rating, Galium” value [16, 24] was 60 and the “Plant response rating, Barnyardgrass” value [17] was 0. For the same compound, the “Plant response rating, Ducksalad” value [18] was 0, the “Plant response rating, Rice” value [19] was 0 and the “Plant response rating, Sedge, Umbrella” value [20] was 0.
`CCC1CN(C(=O)c2cncc(-n3cncn3)c2)c2cccc(Cl)c2O1` (racemic) [Compound 6] was tested, and the “Plant response rating, Barnyardgrass” value [1, 21] was 0, the “Plant response rating, Barnyardgrass” value [1, 22] was 0 and the “Plant response rating, Foxtail, Giant” value [2, 21] was 0. The “Plant response rating, Foxtail, Giant” value [2, 22] was 60, the “Plant response rating, Kochia” value [3, 21] was 0 and the “Plant response rating, Kochia” value [3, 22] was 0. For the same compound, the “Plant response rating, Pigweed, Redroot” value [4, 21] was 0, the “Plant response rating, Pigweed, Redroot” value [4, 22] was 20 and the “Plant response rating, Ragweed” value [5, 21] was 0. The “Plant response rating, Ragweed” value [5, 22] was 30, the “Plant response rating, Ryegrass, Italian” value [6, 21] was 20 and the “Plant response rating, Ryegrass, Italian” value [6, 22] was 50. The “Plant response rating, Barnyardgrass” value [7, 23] was 0, the “Plant response rating, Barnyardgrass” value [7, 24] was 10 and the “Plant response rating, Blackgrass” value [8, 23] was 0. The “Plant response rating, Blackgrass” value [8, 24] was 0, the “Plant response rating, Corn” value [9, 23] was 0 and the “Plant response rating, Corn” value [9, 24] was 0. For the same compound, the “Plant response rating, Foxtail, Giant” value [10, 23] was 0, the “Plant response rating, Foxtail, Giant” value [10, 24] was 10 and the “Plant response rating, Kochia” value [11, 23] was 0. For the same compound, the “Plant response rating, Kochia” value [11, 24] was 0, the “Plant response rating, Pigweed, Redroot” value [12, 23] was 0 and the “Plant response rating, Pigweed, Redroot” value [12, 24] was 30. For the same compound, the “Plant response rating, Ragweed” value [13, 23] was 0, the “Plant response rating, Ragweed” value [13, 24] was 0 and the “Plant response rating, Ryegrass, Italian” value [14, 23] was 50. The “Plant response rating, Ryegrass, Italian” value [14, 24] was 40, the “Plant response rating, Wheat” value [15, 23] was 0 and the “Plant response rating, Wheat” value [15, 24] was 0. The “Plant response rating, Galium” value [16, 23] was 0, the “Plant response rating, Galium” value [16, 24] was 30 and the “Plant response rating, Barnyardgrass” value [17] was 0. The “Plant response rating, Ducksalad” value [18] was 0, the “Plant response rating, Rice” value [19] was 0 and the “Plant response rating, Sedge, Umbrella” value [20] was 0.
`CC1CN(C(=O)c2cccc(-n3cncn3)c2)c2cccc(F)c2O1` (centres unmarked) [Compound 20] was tested, and the “Plant response rating, Barnyardgrass” value [1, 25] was 90, the “Plant response rating, Foxtail, Giant” value [2, 25] was 100 and the “Plant response rating, Kochia” value [3, 25] was 80. The “Plant response rating, Pigweed, Redroot” value [4, 25] was 80, the “Plant response rating, Ragweed” value [5, 25] was 80 and the “Plant response rating, Ryegrass, Italian” value [6, 25] was 100. For the same compound, the “Plant response rating, Barnyardgrass” value [7, 26] was 90, the “Plant response rating, Blackgrass” value [8, 26] was 70 and the “Plant response rating, Corn” value [9, 26] was 60. The “Plant response rating, Foxtail, Giant” value [10, 26] was 90, the “Plant response rating, Kochia” value [11, 26] was 30 and the “Plant response rating, Pigweed, Redroot” value [12, 26] was 30. The “Plant response rating, Ragweed” value [13, 26] was 30, the “Plant response rating, Ryegrass, Italian” value [14, 26] was 70 and the “Plant response rating, Wheat” value [15, 26] was 70. The “Plant response rating, Galium” value [16, 26] was 90, the “Plant response rating, Barnyardgrass” value [17] was 0 and the “Plant response rating, Ducksalad” value [18] was 85. The “Plant response rating, Rice” value [19] was 0 and the “Plant response rating, Sedge, Umbrella” value [20] was 35.
